Laboratory results from PubChem BioAssay (NCI).
Several values for one entry are separate records, joined by “and”; a condition that tells them apart may be missing. Equal values may be shown once.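 Following 48 hours of exposure in 96-well plates, responses at five concentrations were used to interpolate endpoints linearly. Abbreviation: GI50, concentration required for 50% inhibition of growth. TGI: concentration producing complete growth inhibition.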

Assays:
Test in all cases: NCI tumour cell line growth inhibition, 48 h
OVCAR-8 ovarian = system: OVCAR-8 ovarian
M14 melanoma = system: M14 melanoma
ACHN renal = system: ACHN renal
BT-549 breast = system: BT-549 breast
SR leukemia = system: SR leukemia
HOP-92 NSCLC = system: HOP-92 NSCLC
786-0 renal = system: 786-0 renal
K-562 leukemia = system: K-562 leukemia
OVCAR-3 ovarian = system: OVCAR-3 ovarian
T-47D breast = system: T-47D breast

## C/C(=N\O)[C@H]1CC[C@@]2(C)[C@@H]3CC[C@H]4C(C)(C)/C(=N/O)CC[C@@]45CC35CC[C@]12C (some centres not stated)
OVCAR-8 ovarian
  GI50: 3.64 µM
  TGI: 9.39 µM
M14 melanoma
  GI50: 3.2 µM
  TGI: 8.11 µM
ACHN renal
  GI50: 2.51 µM
  TGI: 4.97 µM
BT-549 breast
  GI50: 2.65 µM
  TGI: 9.59 µM
SR leukemia
  GI50: 1.85 µM
  TGI: > 16.7 µM
HOP-92 NSCLC
  GI50: 2.09 µM
  TGI: 5.45 µM
786-0 renal
  GI50: 2.97 µM
  TGI: 6.85 µM
K-562 leukemia
  GI50: 3.42 µM
  TGI: > 16.7 µM

## COc1ccc(C2NC(=S)NC3=C2COc2ccc(F)cc23)cc1OC (configuration not stated)
OVCAR-8 ovarian
  GI50: 19.4 µM
  TGI: 60.9 µM
M14 melanoma
  GI50: 33.9 µM
  TGI: > 100 µM
ACHN renal
  GI50: 13 µM
  TGI: 39.2 µM
BT-549 breast
  GI50: 27.9 µM
  TGI: 83.3 µM
SR leukemia
  GI50: 50.8 µM
  TGI: > 100 µM
OVCAR-3 ovarian
  GI50: 11 µM
  TGI: 49.9 µM
HOP-92 NSCLC
  GI50: 41.7 µM
  TGI: > 100 µM
786-0 renal
  GI50: 28.6 µM
  TGI: > 100 µM
K-562 leukemia
  GI50: 15.9 µM
  TGI: > 100 µM

## OCCN(CCO)c1ncnc2c1sc(=S)n2-c1ccccc1
OVCAR-8 ovarian
  TGI: > 100 µM
M14 melanoma
  TGI: > 100 µM
ACHN renal
  TGI: > 100 µM
SR leukemia
  TGI: > 100 µM
OVCAR-3 ovarian
  TGI: > 100 µM
HOP-92 NSCLC
  TGI: > 100 µM
786-0 renal
  TGI: > 100 µM
K-562 leukemia
  TGI: > 100 µM

## C(/C=C/N1CCCC1)=C\c1nc(N2CCCC2)c2ccccc2n1
OVCAR-8 ovarian
  TGI: > 100 µM
M14 melanoma
  TGI: 33.5 µM
ACHN renal
  TGI: 30.8 µM
SR leukemia
  TGI: 33.9 µM
OVCAR-3 ovarian
  TGI: 29.7 µM
786-0 renal
  TGI: 30.4 µM
K-562 leukemia
  TGI: 35.6 µM

## COC(=O)Cc1cc(=O)oc2c1C(=O)CCC2
OVCAR-8 ovarian
  TGI: > 100 µM
M14 melanoma
  TGI: > 100 µM
ACHN renal
  TGI: > 100 µM
OVCAR-3 ovarian
  TGI: > 100 µM
HOP-92 NSCLC
  TGI: > 100 µM
786-0 renal
  TGI: > 100 µM
K-562 leukemia
  TGI: > 100 µM

## O=C1[C@H]2ON(c3ccccc3)C(c3cccc([N+](=O)[O-])c3)[C@H]2C(=O)N1c1ccc(Cc2ccc(N3C(=O)[C@@H]4ON(c5ccccc5)C(c5cccc([N+](=O)[O-])c5)[C@@H]4C3=O)cc2)cc1 (some centres not stated)
OVCAR-8 ovarian
  TGI: > 100 µM
M14 melanoma
  TGI: 60.8 µM
ACHN renal
  TGI: > 100 µM
SR leukemia
  TGI: > 100 µM
OVCAR-3 ovarian
  TGI: > 100 µM
786-0 renal
  TGI: > 100 µM
K-562 leukemia
  TGI: > 100 µM

## COc1cc2c3c(c1OC)/C(=N/OS(=O)(=O)c1ccc(C)cc1)CC3N(S(=O)(=O)c1ccc(C)cc1)CC2 (configuration not stated)
OVCAR-8 ovarian
  TGI: > 100 µM
M14 melanoma
  TGI: > 100 µM
ACHN renal
  TGI: > 100 µM
OVCAR-3 ovarian
  TGI: > 100 µM
HOP-92 NSCLC
  TGI: > 100 µM
786-0 renal
  TGI: > 100 µM
K-562 leukemia
  TGI: > 100 µM

## CCOc1ccccc1NC(=O)CCC(=O)NN
OVCAR-8 ovarian
  TGI: > 100 µM
M14 melanoma
  TGI: > 100 µM
ACHN renal
  TGI: > 100 µM
SR leukemia
  TGI: 70.1 µM
OVCAR-3 ovarian
  TGI: > 100 µM
HOP-92 NSCLC
  TGI: > 100 µM
786-0 renal
  TGI: > 100 µM
K-562 leukemia
  TGI: > 100 µM

## COC(=O)C1=C(C(=O)OC)N(C(C)C)[C@H]2C(C(=O)OC)=C(C(=O)OC)N(C(C)C)[C@@H]12
OVCAR-8 ovarian
  TGI: > 100 µM
M14 melanoma
  TGI: > 100 µM
ACHN renal
  TGI: > 100 µM
SR leukemia
  TGI: > 100 µM
OVCAR-3 ovarian
  TGI: > 100 µM
HOP-92 NSCLC
  TGI: > 100 µM
786-0 renal
  TGI: > 100 µM
K-562 leukemia
  TGI: > 100 µM

## O=C1OC(c2ccc(Cl)c3ccccc23)c2ccccc21 (configuration not stated)
OVCAR-8 ovarian
  TGI: > 100 µM
M14 melanoma
  TGI: > 100 µM
ACHN renal
  TGI: > 100 µM
SR leukemia
  TGI: > 100 µM
HOP-92 NSCLC
  TGI: > 100 µM
786-0 renal
  TGI: > 100 µM
K-562 leukemia
  TGI: > 100 µM

## COc1cc2c(c(OC)c1OC)-c1ccc(SC)c(=O)cc1[C@@H](NC(=O)c1ccc(F)cc1)CC2
OVCAR-8 ovarian
  GI50: < 0.01 µM
  TGI: 14.6 µM
M14 melanoma
  GI50: < 0.01 µM
  TGI: 2.69 µM
ACHN renal
  GI50: < 0.01 µM
  TGI: 91.3 µM
SR leukemia
  GI50: 0.0167 µM and < 0.01 µM
  TGI: > 100 µM
OVCAR-3 ovarian
  GI50: < 0.01 µM
  TGI: 0.0378 µM and < 0.01 µM
HOP-92 NSCLC
  TGI: 0.0958 µM
786-0 renal
  GI50: < 0.01 µM
  TGI: 11.5 µM
K-562 leukemia
  GI50: < 0.01 µM
  TGI: > 100 µM

## COc1cc(/C=C2/C(=O)N(C(=O)c3ccccc3O)N=C2C)ccc1O
OVCAR-8 ovarian
  TGI: > 100 µM
M14 melanoma
  TGI: 35.3 µM
ACHN renal
  TGI: > 100 µM
T-47D breast
  TGI: > 100 µM
SR leukemia
  TGI: > 100 µM
OVCAR-3 ovarian
  TGI: 0.989 µM
HOP-92 NSCLC
  TGI: > 100 µM
786-0 renal
  TGI: > 100 µM
K-562 leukemia
  TGI: > 100 µM

## C=C1C(=O)C23CC1CCC2C12CO[C@@]3(O)[C@@H](O)C1C(C)(C)C=CC2=O (some centres not stated)
OVCAR-8 ovarian
  GI50: 3.37 µM
M14 melanoma
  TGI: 6.1 µM
ACHN renal
  GI50: 3.36 µM
  TGI: 1.42 µM and 11.5 µM
T-47D breast
  TGI: 33.1 µM
SR leukemia
  GI50: 0.721 µM
  TGI: 43.6 µM and 16.1 µM
OVCAR-3 ovarian
  TGI: 2.75 µM
HOP-92 NSCLC
  GI50: 2.92 µM
  TGI: 1.46 µM and 5.41 µM
786-0 renal
  GI50: 1.75 µM
  TGI: 1.24 µM and 3.59 µM
K-562 leukemia
  TGI: > 100 µM

## CCOC(=O)c1cc(C(=O)O)c(=O)n2c1[nH]c1ccccc12
OVCAR-8 ovarian
  TGI: > 100 µM
M14 melanoma
  TGI: > 100 µM
ACHN renal
  TGI: > 100 µM
OVCAR-3 ovarian
  TGI: > 100 µM
786-0 renal
  TGI: > 100 µM
K-562 leukemia
  TGI: > 100 µM

## CCCC/C=C1\CCC(CN2CCCC2)C1=O (configuration not stated)
OVCAR-8 ovarian
  TGI: 28.5 µM
M14 melanoma
  TGI: 23.4 µM
ACHN renal
  TGI: 19.2 µM
SR leukemia
  TGI: 24.5 µM
OVCAR-3 ovarian
  TGI: 31.5 µM
HOP-92 NSCLC
  TGI: 31.1 µM
786-0 renal
  TGI: 3.62 µM
K-562 leukemia
  TGI: 11.1 µM

## CC(=O)Nc1ccc2c(c1)CN1C(=O)c3ccccc3C1=N2
OVCAR-8 ovarian
  GI50: > 100 µM
  TGI: > 100 µM
M14 melanoma
  GI50: > 100 µM
  TGI: > 100 µM
ACHN renal
  GI50: > 100 µM
  TGI: > 100 µM
T-47D breast
  GI50: > 100 µM
  TGI: > 100 µM
SR leukemia
  GI50: > 100 µM
  TGI: > 100 µM
OVCAR-3 ovarian
  GI50: > 100 µM
  TGI: > 100 µM
HOP-92 NSCLC
  GI50: > 100 µM
  TGI: > 100 µM
786-0 renal
  GI50: > 100 µM
  TGI: > 100 µM
K-562 leukemia
  GI50: > 100 µM
  TGI: > 100 µM

## O=C(NOC(=O)c1ccc([N+](=O)[O-])cc1)c1ccc(Cl)cc1
OVCAR-8 ovarian
  TGI: > 100 µM
M14 melanoma
  TGI: > 100 µM
ACHN renal
  TGI: > 100 µM
SR leukemia
  TGI: > 100 µM
HOP-92 NSCLC
  TGI: > 100 µM
786-0 renal
  TGI: > 100 µM
K-562 leukemia
  TGI: > 100 µM

## COc1ccc(C(=O)/C=C/c2ccc(OCCCCCCCCCCOc3ccc(/C=C/C(=O)c4ccc(OC)c(OC)c4)cc3)cc2)c(OC)c1
OVCAR-8 ovarian
  TGI: > 100 µM
M14 melanoma
  TGI: > 100 µM
ACHN renal
  TGI: > 100 µM
T-47D breast
  TGI: > 100 µM
SR leukemia
  TGI: > 100 µM
786-0 renal
  TGI: > 100 µM
K-562 leukemia
  TGI: > 100 µM

## C=C1c2ccccc2N(S(=O)(=O)c2ccc(C)cc2)C12CCCCC2
OVCAR-8 ovarian
  TGI: > 100 µM
M14 melanoma
  TGI: > 100 µM
ACHN renal
  TGI: > 100 µM
SR leukemia
  TGI: > 100 µM
OVCAR-3 ovarian
  TGI: > 100 µM
HOP-92 NSCLC
  TGI: 58.5 µM
786-0 renal
  TGI: > 100 µM
K-562 leukemia
  TGI: > 100 µM

## Cc1ccc(-c2cc(C(Cl)Cl)on2)cc1
OVCAR-8 ovarian
  GI50: > 100 µM
  TGI: > 100 µM
M14 melanoma
  GI50: 74.1 µM
  TGI: > 100 µM
ACHN renal
  GI50: 33.5 µM
  TGI: > 100 µM
BT-549 breast
  GI50: > 100 µM
  TGI: > 100 µM
T-47D breast
  GI50: 35.3 µM
  TGI: > 100 µM
OVCAR-3 ovarian
  GI50: 51.8 µM
  TGI: > 100 µM
HOP-92 NSCLC
  GI50: 33.5 µM
  TGI: > 100 µM
786-0 renal
  GI50: 60.3 µM
  TGI: > 100 µM

## O=C(O)C(CS)N=Cc1nc(-c2ccccc2)oc1O (configuration not stated)
OVCAR-8 ovarian
  TGI: > 100 µM
M14 melanoma
  TGI: > 100 µM
ACHN renal
  TGI: > 100 µM
SR leukemia
  TGI: > 100 µM
OVCAR-3 ovarian
  TGI: > 100 µM
HOP-92 NSCLC
  TGI: > 100 µM
786-0 renal
  TGI: > 100 µM
K-562 leukemia
  TGI: > 100 µM

## Cc1nnc(N=Nc2c(O)[nH]c3ccccc23)[nH]c1=O
OVCAR-8 ovarian
  TGI: > 100 µM
M14 melanoma
  TGI: > 100 µM
ACHN renal
  TGI: > 100 µM
BT-549 breast
  TGI: > 100 µM
SR leukemia
  TGI: > 100 µM
OVCAR-3 ovarian
  TGI: > 100 µM
HOP-92 NSCLC
  TGI: > 100 µM
786-0 renal
  TGI: > 100 µM
K-562 leukemia
  TGI: > 100 µM
